How the values were obtained:
Format in all cases: cell-based
Normal WI38 (NSC) = assay: Viability of normal WI38 cells (NSC), 72 h, PI staining and flow cytometry; conditions: Homo sapiens, WI-38, viable (PI-) cells as percentage of vehicle control
Procedure: (§1) Normal WI38 (NSC) and IR-induced senescent WI38 cells (IR-SC) were incubated with vehicle or increasing concentrations of compounds of Formula (I) or Formula (II) for 72 hours. The cells were digested with 0.25% trypsin and 1 mM EDTA, and harvested in PBS containing 2% FBS. After incubation with propidium iodide (PI, 100 ng/ml) in PBS at room temperature for 1 minute, cells were centrifuged at 1,200 rpm for 6 minutes to remove PI and then resuspended in PBS containing 2% FBS for analysis using a flow cytometer. Viable cells (PI-cells) were analyzed by flow cytometry at a constant flow rate to count the number of cells and calculated as a percentage of control cells treated with vehicle. Table 1 depicts the EC50 values of the compounds of Formula (I) and compounds of Formula (II) against normal WI38 and IR-induced senescent WI38.

[1] = test system: IR-induced senescent WI38 cells (IR-SC); assay: Viability of IR-induced senescent WI38 cells (IR-SC), 72 h, PI staining and flow cytometry; conditions: for EC50: Homo sapiens, WI-38, IR-induced senescent WI38 cells, 72 hours, viable (PI-) cells as percentage of vehicle control; for Ratio NSC/SC: ratio of WI38 EC50 in NSC to EC50 in IR-SC; for Selective inhibition of IR-SC WI38 cells versus normal WI38 cells: FIG. 2A, FIG. 2B, increasing concentrations
Procedure: as §1

RS4; 11 cancer cells = assay: Cancer cell viability by MTS, 72 h, RS4;11; conditions: Homo sapiens, RS4;11 cells
Procedure: (§2) RS4; 11 and NCI-H146 cancer cells were incubated with vehicle or increasing concentrations of compounds of Formula (I) and Formula (II). At 72 hours post-treatment cell viability was measured by MTS and EC50 was calculated as a percentage of control cells treated with vehicle. Table 1 depicts the EC50 values of compounds of Formula (I) and Formula (II) against RS4; 11 and NCI-H146.

NCI-H146 cancer cells = assay: Cancer cell viability by MTS, 72 h, NCI-H146; conditions: Homo sapiens
Procedure: as §2

| Compound | EC50 (Normal WI38 (NSC)) [nM] | EC50 [1] [nM] | Ratio NSC/SC [1] | EC50 (RS4; 11 cancer cells) [nM] | EC50 (NCI-H146 cancer cells) [nM] | Selective inhibition of IR-SC WI38 cells versus normal WI38 cells [1] |
| --- | --- | --- | --- | --- | --- | --- |
| CC1(C)CCC(CN2CCN(c3ccc(C(=O)NS(=O)(=O)c4ccc(NCC5CCOCC5)c([N+](=O)[O-])c4)c(Oc4cnc5[nH]ccc5c4)c3)CC2)=C(c2ccc(Cl)cc2)C1 [ABT-199, venetoclax, reference compound] | > 10000 | > 10000 | – | – | – | – |
| CC1(C)CCC(c2ccc(Cl)cc2)=C(CN2CCN(c3ccc(C(=O)NS(=O)(=O)c4ccc(N[C@H](CCN5CCOCC5)CSc5ccccc5)c(S(=O)(=O)C(F)(F)F)c4)cc3)CC2)C1 [ABT-263, navitoclax, reference compound] | 12600 | 610 | 20.6 | 16 | 27.5 | – |
| O=C1CCC(N2C(=O)c3cccc(NCCOCCOCCOCc4cn(CCCC(=O)N5CCN(CC#Cc6ccc(OCCCc7sc(N8CCc9cccc(C(=O)Nc%10nc%11ccccc%11s%10)c9C8)nc7C(=O)O)c(F)c6)CC5)nn4)c3C2=O)C(=O)N1 (centres unmarked) [XZ-12906, 2-(8-(benzo[d]thiazol-2-ylcarbamoyl)-3,4-dihydroisoquinolin-2(1H)-yl)-5-(3-(4-(3-(4-(4-(4-((2-(2-(2-(2-(2,6-dioxopiperidin-3-yl)-1,3-dioxoisoindolin-4-ylamino)ethoxy)ethoxy)ethoxy)methyl)-1H-1,2,3-triazol-1-yl)butanoyl)piperazin-1-yl)prop-1-ynyl)-2-fluorophenoxy)propyl)thiazole-4-carboxylic acid] | – | – | – | – | – | selectively inhibit IR-SC WI38 cells but not normal WI 38 cells in a dose dependent manner |
| CC(C)(C)OC(=O)N1CCN(CC#Cc2ccc(OCCCc3sc(N4CCc5cccc(C(=O)Nc6nc7ccccc7s6)c5C4)nc3C(=O)O)c(F)c2)CC1 [XZ-13861, 2-(8-(benzo[d]thiazol-2-ylcarbamoyl)-3,4-dihydroisoquinolin-2(1H)-yl)-5-(3-(4-(3-(4-(tert-butoxycarbonyl)piperazin-1-yl)prop-1-ynyl)-2-fluorophenoxy)propyl)thiazole-4-carboxylic acid] | 32800 | 3120 | 10.51 | – | – | selectively inhibit IR-SC WI38 cells but not normal WI 38 cells in a dose dependent manner |
| O=C1CCC(N2C(=O)c3cccc(NCCOCCOCc4cn(CCCC(=O)N5CCN(CC#Cc6ccc(OCCCc7sc(N8CCc9cccc(C(=O)Nc%10nc%11ccccc%11s%10)c9C8)nc7C(=O)O)c(F)c6)CC5)nn4)c3C2=O)C(=O)N1 (centres unmarked) [XZ-14424, 2-(8-(benzo[d]thiazol-2-ylcarbamoyl)-3,4-dihydroisoquinolin-2(1H)-yl)-5-(3-(4-(3-(4-(4-(4-((2-(2-((2-(2,6-dioxopiperidin-3-yl)-1,3-dioxoisoindolin-4-yl)amino)ethoxy)ethoxy)methyl)-1H-1,2,3-triazol-1-yl)butanoyl)piperazin-1-yl)prop-1-yn-1-yl)-2-fluorophenoxy)propyl)thiazole-4-carboxylic acid] | 1600 | 1400 | 1.2 | – | – | – |
| Cc1ncsc1-c1ccc(CNC(=O)[C@@H]2C[C@@H](O)CN2C(=O)[C@@H](NC(=O)COCCOCCOCc2cn(CCCC(=O)N3CCN(CC#Cc4ccc(OCCCc5sc(N6CCc7cccc(C(=O)Nc8nc9ccccc9s8)c7C6)nc5C(=O)O)c(F)c4)CC3)nn2)C(C)(C)C)cc1 [XZ-14455, 2-(8-(benzo[d]thiazol-2-ylcarbamoyl)-3,4-dihydroisoquinolin-2(1H)-yl)-5-(3-(2-fluoro-4-(3-(4-(4-(4-((S)-12-((2S,4R)-4-hydroxy-2-((4-(4-methylthiazol-5-yl)benzyl)carbamoyl)pyrrolidine-1-carbonyl)-13,13-dimethyl-10-oxo-2,5,8-trioxa-11-azatetradecyl)-1H-1,2,3-triazol-1-yl)butanoyl)piperazin-1-yl)-prop-1-yn-1-yl)phenoxy)propyl)thiazole-4-carboxylic acid] | 5000 | 1470 | 3.40 | > 2000 | > 2000 | – |

— patent US11319316B2, “Compounds that induce degradation of anti-apoptotic Bcl-2 family proteins and the uses thereof” (BioVentures, LLC, priority 2016, dated 2022)
